Measured values reported in US11318138B2, “Methods for treating B cell proliferative disorders” (priority 2013, dated 2022).

Tests used:
[1] = system: PIK3IP1 mRNA in JEKO-1 cells; test: q-RT-PCR analysis of PIK3IP1 mRNA expression in MCL cells; type: cell-based; conditions: JEKO-1, PD (30 h) alone or Ibrutinib (24 h) alone
[2] = system: CCL3, CCL4, TNF and IL10 expression in MCL cells; conditions: MCL cells ex vivo; cited from earlier work
[3] = system: MAVER-1 cells; test: MCL cell line culture with Ibrutinib and/or PD 0332991: viability, cell cycle, apoptosis, live cells; type: cell-based; conditions: MAVER-1, Ibrutinib 72 h, Trypan blue exclusion and ToPro-3 FACS
[4] = system: PIK3IP1 mRNA in MAVER-1 cells; test: q-RT-PCR analysis of PIK3IP1 mRNA expression in MCL cells; type: cell-based; conditions: MAVER-1, PD (30 h) alone or Ibrutinib (24 h) alone
[5] = system: MINO cells; test: MCL cell line culture with Ibrutinib and/or PD 0332991: viability, cell cycle, apoptosis, live cells; type: cell-based
[6] = system: MCL patient (Pt 7); conditions: Pt 7, Ibrutinib 560 mg daily
[7] = system: JEKO-1 cells; test: MCL cell line culture with Ibrutinib and/or PD 0332991: viability, cell cycle, apoptosis, live cells; type: cell-based; conditions: JEKO-1, Ibrutinib 72 h, Trypan blue exclusion and ToPro-3 FACS
[8] = system: chicken lymphoma DL40 cell line; conditions: model chicken lymphoma DL40 cell line; cited from earlier work
[9] = system: SP53 cells; conditions: SP53, Ibrutinib 72 h, at the G1-S transition
[10] = system: recurrent MCL patients; conditions: cited from earlier work

| SMILES | PIK3IP1 mRNA induction, single agent [1] | expression of CCL3, CCL4, TNF and IL10 [2] | sensitivity of cells to ibrutinib (viability, DNA fragmentation) [3] | PIK3IP1 mRNA induction, single agent [4] | toxicity to cells ([5]; Ibrutinib 72 h) | S phase entry (BrdU pulsing/PI analysis) ([5]; Ibrutinib 72 h (1 μM)) | duration of response before progression [6] [months] | sensitivity of cells to ibrutinib (viability, DNA fragmentation) [7] | effect of C481S BTK mutation on ibrutinib sensitivity [8] | apoptosis (accumulation of sub 2N cells, reduction of S phase cells) [9] | cell cycle effect in patients [10] | clinical response [10] |
| --- | --- | --- | --- | --- | --- | --- | --- | --- | --- | --- | --- | --- |
| C=CC(=O)N1CCC[C@@H](n2nc(-c3ccc(Oc4ccccc4)cc3)c3c(N)ncnc32)C1 [Ibrutinib, (R)-1-(3-(4-amino-3-(4-phenoxyphenyl)-1H-pyrazolo[3,4-d]pyrimidin-1-yl)piperidin-1-yl)prop-2-en-1-one] | modestly induced | suppress | completely refractory | modestly induced | not toxic | moderately inhibiting | 14 | completely refractory | conferred resistance | potently induced apoptosis |  |  |
| CC(=O)c1c(C)c2cnc(Nc3ccc(N4CCNCC4)cn3)nc2n(C2CCCC2)c1=O [PD 0332991] | modestly induced |  |  | modestly induced |  |  |  |  |  |  | prolonged early G1 arrest | durable clinical response |
